# Literature values as cited in patent US20090110646A1, “Product for Treating the Skin and Mucous Membranes, and Relative Method of Preparation” (priority 2005, published 2009).
structure (smiles),measurement,setting,value
"O=C(O)C(Cl)(Cl)Cl [TCA, trichloracetic acid]",depth of dermal necrosis,solution of TCA at about 30-40% w/w,0.3-0.5 mm
same,effect on skin,solution of TCA in a concentration of less than 25% w/w,exfoliation of the epidermis
same,time of eschar (crust) until skin renewal,very concentrated TCA,7 to 10 days
